Assay [1] relates to GDH activity in MDA-MB-231 cells. As to the kind of experiment: GDH activity assay in lysates of treated MDA-MB-231 cells. It counts as cell-based, human. The following applies: 50 μM, 4 h. On the procedure: Selected compounds 3a–d were tested in triple-negative breast cancer MDA-MB-231 cells to evaluate their effects on SIRT3 physiological substrates. First, the effect on the activity of GDH (an established SIRT3 substrate activated through deacetylation[60]−[62]) was investigated by a coupled enzyme assay. […] These effects of SIRT3 activators clearly phenocopied those observed in the SIRT3-overexpressing MDA-MB-231 cells (SIRT3^+) (Figure 6).
GDH activity in cells treated or not with the SIRT3 activators 3a–d and the reference compounds 2 and 3 was measured using a GDH activity assay kit (MAK099, Merck) following the manufacturer’s instructions. Briefly, 10^6 cells were lysed in 40 μL of GDH assay buffer and kept for 10 min in ice. Afterward, lysates were centrifuged to collect supernatants. Ten microliters of supernatant were added to 40 μL of GDH buffer and 100 μL of a mix containing GDH assay buffer, developer, and glutamate. The whole mix was transferred into a 96-well plate and incubated at 37 °C for 3 min. Finally, absorbance was read at 450 nm using a GloMax multi detection system (Promega, Milan, Italy). The absorbance of the assay buffer was subtracted from each experimental sample.

The test system of assay [2] is HIF-1α, EPAS-1, and CA-IX protein expression in CAL-62. As to the kind of experiment: Western blot of HIF-1α, EPAS-1 and CA-IX in CAL-62 cells under hypoxia. It is filed as cell-based. Particulars: CAL-62, 50 μM, 48 h, hypoxia. As to the method:
Based on these findings, we decided to assess the ability of the SIRT3 activators 3a–d to impair HIF-1α, EPAS-1, and CA-IX protein expression in CAL-62 (Figure 10A–F) and MDA-MB-231 (Figure 11A–F) cell lines treated with the compounds at 50 μM for 48 h and under hypoxia conditions.
Breast cancer cell line MDA-MB-231, anaplastic thyroid cancer cell line CAL-62 and human keratinocytes HaCaT were purchased from ATCC and were cultured in RPMI 1640 medium (R0883 Sigma Aldrich-MERCK) (MDA-MB-231 and CAL-62) or DMEM medium (11965092, Gibco) supplemented with 10% fetal bovine serum (Sigma-Aldrich-MERCK, F9665), 2 mM glutamine (G7513; Sigma-Aldrich-MERCK), 100 units/mL penicillin and 0.1 mg/mL streptomycin (P0781; Sigma-Aldrich-MERCK). Adherent cells were detached by Trypsin–EDTA solution (TA049; Sigma-Aldrich-MERCK). Cells were maintained at 37 °C in humidified incubator with 5% CO2. Cells were treated with […] (CoCl2) (Merck; C8661) dissolved in distilled, sterile water for 24 h to induce hypoxia (200 μM). Hypoxic and normoxic cells were also treated with 10/50 μM of the indicated compounds (dissolved in DMSO) for 48 h, maintaining the CoCl2 in the culture medium for hypoxic conditions. SIRT3 inhibitor 3-TYP was dissolved in DMSO and added to a final concentration of 1 μM for 24 and/or 48 h.
The following antibodies were used in this study: ACTB (Merck; A5316), HIF1-α (Cell Signaling; 14179), HIF2/EPAS-1 (Santa Cruz Biotechnology sc-13596), HXKII (Santa Cruz Biotechnology sc-6521), CAIX (Novus Biotechnology NB100-417), SIRT3 (Cell Signaling; 2627S), MnSOD (Abcam ab13533), MnSOD K68 (Abcam ab137037), MnSOD K122 (Abcam ab214675), peroxidase-conjugated AffiniPure Goat Anti-Rabbit IgG (H + L) (Jackson ImmunoResearch; 111-035-003), and peroxidase-conjugated AffiniPure Goat Anti-Mouse IgG (H + L) (Jackson ImmunoResearch; 115-035-062).
Treated and untreated cells were collected and centrifuged at 3000 rpm for 5 min. After removing the supernatant, cells were lysed in 70 μL of lysis buffer containing: 50 mM Tris-Cl (Merck; 93352), 250 mM sodium chloride (NaCl, Merck; S7653), 5 mM ethylenediaminetetraacetic acid (EDTA; Merck; E6758), 0.1% Triton X-100 and 0.1 mM dithiothreitol (Merck; D9163) plus 1 mM phenylmethylsulfonyl fluoride (PMSF, Merck; 93482), protease inhibitor cocktail (PI; Merck; P8340), 1 mM sodium orthovanadate (NA3VO4, Merck; S6508), and 10 mM sodium fluoride (NaF, Merck; 201154) (lysis buffer). After 30 min on ice, samples were centrifuged at 13,000 rpm for 10 min at 4 °C, and the supernatants collected. Protein concentration was determined by the Bradford assay (Bio-Rad; 500-0205). The equivalent of 15 or 50 μg of protein was boiled for 5 min, electrophoresed onto denaturing SDS-PAGE gel, and transferred onto a […] nitrocellulose membrane (Bio-Rad; 162-0115). After blocking with 5% milk, membranes were incubated with the appropriate primary antibody overnight. The next day, after three washes with 0.1% Tween 20 (Merck; P9416) in PBS (PBST) for 30 min at rt, membranes were incubated with the appropriate secondary antibody for 1 h at rt. After three more washes in PBST, the detection of the relevant protein was assessed by enhanced chemiluminescence (Lite Ablot TURBO, Euro-Clone; EMP012001). Densitometric analysis of the bands, relative to ACTB, was performed using ImageJ Software v1.51 (NIH, Bethesda, MD, USA).
Background: In western blotting, separated proteins are transferred to a membrane and probed.

Turning to `CCOC(=O)C1=CN(C(=O)c2ccc(OC)c(OC)c2)C=C(C(=O)OCC)C1c1ccccc1` [Compound 3c, Diethyl 1-(3,4-dimethoxybenzoyl)-4-phenyl-1,4-dihydropyridine-3,5-dicarboxylate], the “effect on GDH activity in cell lysates” value in assay [1] is recorded as “increase in GDH activity”. Further, in assay [2], the EPAS-1 protein expression result is on record as “downregulated”.

In the case of `CCOC(=O)C1=CN(C(=O)c2cc(OC)cc(OC)c2)C=C(C(=O)OCC)C1c1ccccc1` [Compound 3d, Diethyl 1-(3,5-dimethoxybenzoyl)-4-phenyl-1,4-dihydropyridine-3,5-dicarboxylate], in assay [1], the GDH activation entry is reported as “around 175%” and the “effect on GDH activity in cell lysates” value was “increase in GDH activity”. For the same compound, in assay [2], the CA-IX protein expression entry is “significantly downregulated”, the EPAS-1 protein expression entry is given as “downregulated” and the HIF-1α protein expression result is recorded as “decrease”.

As to `CCOC(=O)C1=CN(C(=O)c2cccc(OC)c2)C=C(C(=O)OCC)C1c1ccccc1` [Compound 3a, Diethyl 1-(3-methoxybenzoyl)-4-phenyl-1,4-dihydropyridine-3,5-dicarboxylate], the “effect on GDH activity in cell lysates” value in assay [1] is listed as “increase in GDH activity”. Moreover, the CA-IX protein expression entry in assay [2] is recorded as “significantly downregulated”.
